# Assay results taken from article PMC5462475, “A conformational switch high-throughput screening assay and allosteric inhibition of the flavivirus NS2B-NS3 protease” (PLoS Pathogens, 2017).
# Entries after “also recorded” stand apart in the source; their conditions may differ. Read-outs that look alike come from different tables or passages of the source.
# Columns and labels:
# [1] = target: T1, DENV2 NS2B-CLuc-NS3-119-NLuc-NS3 120-to-NS3_C (N2CN3N) (UniProt P08659+P14340); format: biochemical; conditions: for suppression of NPGB-induced SLC enhancement / effect of compound alone on background SLC: compound 40 μM; for suppression of NPGB-induced SLC enhancement: N2CN3N 150 nM; for effect of compound alone on background SLC: no NPGB, compared to DMSO; for inhibition of NPGB-induced SLC enhancement, concentration series: serial dilution of compound
# T1 construct: pairs of primers of 1394F and 1440C for NS2B and 1476F and 1660C for NS3; made in house; host or cells: Escherichia coli Rosetta 2(DE3)
# T1 sequence (P08659 whole entry, looked up, other chains not shown): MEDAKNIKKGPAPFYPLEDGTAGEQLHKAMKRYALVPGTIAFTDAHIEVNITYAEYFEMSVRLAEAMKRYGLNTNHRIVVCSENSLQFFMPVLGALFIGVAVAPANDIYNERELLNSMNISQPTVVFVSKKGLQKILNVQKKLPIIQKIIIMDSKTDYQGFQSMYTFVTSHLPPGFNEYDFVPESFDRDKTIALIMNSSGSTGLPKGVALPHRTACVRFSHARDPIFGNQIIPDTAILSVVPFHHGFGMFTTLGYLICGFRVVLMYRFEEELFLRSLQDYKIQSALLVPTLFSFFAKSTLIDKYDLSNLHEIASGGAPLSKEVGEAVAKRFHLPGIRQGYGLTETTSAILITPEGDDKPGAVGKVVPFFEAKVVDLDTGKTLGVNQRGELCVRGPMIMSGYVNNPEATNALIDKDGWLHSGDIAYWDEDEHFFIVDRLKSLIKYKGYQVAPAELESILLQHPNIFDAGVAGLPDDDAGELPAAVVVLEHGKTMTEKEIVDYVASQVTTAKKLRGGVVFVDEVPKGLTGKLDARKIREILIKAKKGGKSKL
# N2CN3N A125C mutant = target: T2, N2CN3N A125C mutant (UniProt P08659+P14340); format: biochemical
# T2 construct: pairs of primers of 1394F and 1440C for NS2B and 1476F and 1660C for NS3; made in house; host or cells: Escherichia coli Rosetta 2(DE3)
# [2] = target: T3, full-length firefly luciferase (FLuc) (Photinus pyralis, UniProt P08659); format: biochemical; conditions: FLuc 150 nM, compound 30 μM
# T3 construct: or full length Firefly luciferase (150 nM final concentration)
# T3 sequence (P08659 whole entry): as the sequence (P08659 whole entry, looked up, other chains not shown) above
# [3] = target: T4, unlinked ZIKV NS2B/NS3 protease (Zika virus, UniProt A0A024B7W1); assay: ZIKV unlinked NS2B/NS3 protease inhibition assay; format: biochemical; conditions: protease 150 nM
# T4 construct: The construct contains the NS2B residues 49–95 and the NS3 residues 1–185; made in house; host or cells: E. coli (Rosetta 2(DE3))
# Text: As flavivirus NS3 is highly conserved (Fig 3C), it is possible that the inhibitors identified are broad spectrum flavivirus inhibitors. We therefore investigated whether NSC135618 is effective against other flaviviruses. Because ZIKV treatment currently has the most urgent need, we evaluated the efficacy of the compound on ZIKV. To this end, we first constructed an unlinked NS2B/NS3 heterocomplex of ZIKV in the pET28a vector by engineering a 3C protease cleavage site within the GGGSGGGG linker region between NS2B and NS3. The NS2B/NS3 protease was first expressed as a His-tagged covalently linked single chain protein in E coli. The unlinked ZIKV NS2B/NS3 protease complex was generated by on-column digestion with thrombin and 3C proteases, followed by gel filtration chromatography.
# Fig 7 Inhibition of the ZIKV protease activity, viral titer, protein expression, and viral RNA replication by NSC135618. […] ST, molecular weight (MW) standard. (B) Dose response inhibition of the unlinked ZIKV NS2B-NS3 protease by NSC135618. The NS2b/NS3 protease was at 150 nM. N = 3. (C) Dose-dependent inhibition of ZIKV by NSC135618 in A549 cells. Viral plaque reduction assay was used. N = 3. (D) Immunofluorescence assay (IFA) of inhibition of viral protein expression for ZIKV-infected A549 cells by NSC135618, using pan flavivirus anti-E antibody 4G2. […]
# ZIKV [4] = assay: microbe, parasite or virus in culture; format: cell-based; conditions: HPECs, MOI 2
# ZIKV [5] = assay: microbe, parasite or virus in culture; format: cell-based; conditions: hNPCs, MOI 2
# unlinked DENV2 NS2B/NS3 = target: T5, unlinked DENV2 NS2B/NS3 (Dengue virus type 2, UniProt P14340); assay: Protein thermal shift assay (PTSA), unlinked DENV2 NS2B/NS3; format: binding; conditions: unlinked NS2B/NS3 2.5 μM, compound 4.8 μM
# T5 construct: pairs of primers of 1394F and 1440C for NS2B and 1476F and 1660C for NS3; made in house; host or cells: Escherichia coli Rosetta 2(DE3)
# Text: N = 3. […] N = 3. […] PP, ZIKV polyprotein precursor. **, p<0.05.
# [6] = target: T6, DENV2 NS2B-NS3 K74A mutant (Dengue virus type 2, UniProt P14340, K1549A); format: binding
# [7] = target: T7, DENV2 NS2B-NS3 I123A mutant (Dengue virus type 2, UniProt P14340, I1598A); format: binding
# [8] = target: T8, DENV2 NS2B-NS3 N152A mutant (Dengue virus type 2, UniProt P14340, N1627A); format: binding
# [9] = target: T9, DENV2 NS2B-NS3 V154A mutant (Dengue virus type 2, UniProt P14340, V1629A); format: binding
# [10] = target: T6, DENV2 NS2B-NS3 K74A mutant; format: biochemical; conditions: compound 6 μM, protein 150 nM, vs DMSO
# [11] = target: T7, DENV2 NS2B-NS3 I123A mutant; format: biochemical; conditions: compound 6 μM, protein 150 nM, vs DMSO
# [12] = target: T9, DENV2 NS2B-NS3 V154A mutant; format: biochemical; conditions: compound 6 μM, protein 150 nM, vs DMSO
# [13] = target: T8, DENV2 NS2B-NS3 N152A mutant; format: biochemical; conditions: compound 6 μM, protein 150 nM, vs DMSO
# DENV2 [14] = conditions: for DENV2 viral production (titer) relative to DMSO control: compound at 1, 10 and 100 μM, 48 h post-infection
# ZIKV [15] = conditions: A549 cells
# WNV [16] = test system: WNV
# YFV [17] = test system: YFV
# in vitro = conditions: human
# DENV2 [18] = assay: microbe, parasite or virus in culture; conditions: Dengue virus, A549, 48 h, read-out: EC50, DENV2 viral reduction
# ZIKV [19] = assay: microbe, parasite or virus in culture; conditions: Zika virus, A549, 48 h, read-out: EC50, ZIKV viral reduction
# WNV [20] = assay: microbe, parasite or virus in culture; conditions: West Nile virus, A549, 48 h, read-out: EC50, WNV viral reduction
# YFV [21] = assay: microbe, parasite or virus in culture; conditions: Yellow fever virus, A549, 48 h, read-out: EC50, YFV viral reduction
# [22] = test system: ZIKV NS3 / polyprotein precursor; assay: Western blot of ZIKV NS3 expression and polyprotein processing in infected A549 cells
# N2CN3N A125W mutant = target: T10, N2CN3N A125W mutant (UniProt P08659+P14340); format: biochemical; conditions: A125W mutant 150 nM, NPGB 30 μM
# T10 construct: pairs of primers of 1394F and 1440C for NS2B and 1476F and 1660C for NS3; made in house; host or cells: Escherichia coli Rosetta 2(DE3)
# [23] = protein 2.5 μM, compound 4.8 μM
compound,measurement,setting,value
"O=C(O)c1cc(SSc2ccc([N+](=O)[O-])c(C(=O)O)c2)ccc1[N+](=O)[O-] [DTNB, 5,5'-dithio-bis-[2-nitrobenzoic acid]]",effect on NPGB-triggered SLC enhancement of WT N2CN3N,[1],significantly abolished the active site inhibitor NPGB-triggered SLC enhancement
same,effect on luciferase (baseline SLC) activity of WT N2CN3N,[1],did not significantly affect the luciferase activity
same,effect on baseline SLC signal of A125C mutant,N2CN3N A125C mutant; DTNB 30 μM alone,only slightly decreased the baseline SLC signal
same,effect on NPGB-triggered SLC enhancement of A125C mutant,N2CN3N A125C mutant; DTNB 30 μM with NPGB 30 μM,completely abolished the SLC enhancement
same,effect on luciferase activity of full-length FLuc,[2],do not affect the luciferase activity; also recorded: did not significantly affect the luciferase activity
O=C1C=CC(=NNc2ccc([N+](=O)[O-])cc2Cl)C=C1C(=O)Nc1cccc(Cl)c1 [NSC135618],IC50,[3],380 nM
same,suppression of NPGB-induced SLC enhancement,[1]; NPGB 30 μM,abolish the SLC enhancement induced by NPGB to the background level
same,effect of compound alone on background SLC,[1],did not have significant effect on background SLC
same,"inhibition of NPGB-induced SLC enhancement, concentration series",[1]; NPGB 30 μM,significantly suppressed the SLC enhancement; also recorded: clearly inhibited the NPGB-induced SLC enhancement in a dose dependent manner
same,ZIKV RNA replication (qRT-PCR),ZIKV [4],drastically decreased ZIKV RNA replication
same,ZIKV protein expression (IFA),ZIKV [4],drastically decreased
same,inhibition of ZIKV (titer),ZIKV [4],effectively inhibited ZIKV in HPECs in a dose-dependent manner
same,EC50,"ZIKV [4]; Zika virus, Epithelial cell, read-out: EC50, ZIKV inhibition in HPECs",1000 nM
same,EC50,"ZIKV [5]; Zika virus, read-out: EC50, ZIKV inhibition in hNPCs",1900 nM
same,ZIKV RNA replication (qRT-PCR),ZIKV [5],considerably reduce
same,ZIKV protein expression (IFA),ZIKV [5],considerably reduce
same,reduction of ZIKV titers,ZIKV [5],considerably reduce ZIKV titers
same,increase of melting temperature (ΔTm) vs DMSO,unlinked DENV2 NS2B/NS3,4.8 °C
same,Tm (K74A),[6]; Fig 10D,42.19 °C
same,ΔTm (K74A),[6]; [23],2.48 °C
same,Tm (I123A),[7]; Fig 10D,44.34 °C
same,ΔTm (I123A),[7]; [23],2.69 °C
same,Tm (N152A),[8]; Fig 10D,53.63 °C
same,ΔTm (N152A),[8]; [23],0.55 °C
same,Tm (V154A),[9]; Fig 10D,52.09 °C
same,ΔTm (V154A),[9]; [23],1.75 °C
same,inhibition of protease activity of K74A mutant,[10],retains its inhibition activity
same,inhibition of protease activity of I123A mutant,[11],retains its inhibition activity
same,inhibition of protease activity of V154A mutant,[12],slightly reduced the inhibition activity
same,inhibition of protease activity of N152A mutant,[13],completely abolished the inhibition activity
same,DENV2 viral RNA copy numbers (qRT-PCR),DENV2 [14]; A549 cells,greatly reduced viral RNA copy numbers in a dose dependent manner
same,"EC50, DENV2 viral reduction","DENV2 [14]; A549 cells, MOI 0.1, 48 h",low micromolar range
same,DENV2 viral production (titer) relative to DMSO control,DENV2 [14]; A549 cells,significantly reduced
same,"TI (therapeutic index, CC50/EC50)","DENV2 [14]; DENV2, A549 cells",60
same,"ZIKV viral protein expression (IFA, anti-E antibody 4G2)",ZIKV [15],greatly reduced viral protein expression
same,"EC50, ZIKV viral reduction","ZIKV [15]; MOI 0.1, 48 h",low micromolar range
same,ZIKV viral RNA copy numbers (qRT-PCR),ZIKV [15]; supernatant,greatly reduced
same,"TI (therapeutic index, CC50/EC50)",ZIKV [15]; ZIKV,49
same,"TI (therapeutic index, CC50/EC50)",WNV [16],38
same,"EC50, WNV viral reduction","WNV [16]; A549 cells, MOI 0.1, 48 h",low micromolar range
same,"EC50, YFV viral reduction",YFV [17],low micromolar range
same,"TI (therapeutic index, CC50/EC50)",YFV [17],174
same,CC50,in vitro,48800 nM
same,EC50,DENV2 [18],810 nM
same,EC50,ZIKV [19],1000 nM
same,EC50,WNV [20],1270 nM
same,EC50,YFV [21],280 nM
same,"unprocessed viral polyprotein precursor (high MW band, Western blot)",[22]; 0.19 μM to 3 μM,accumulation of high molecular weight (MW) protein
same,"ZIKV NS3 expression (Western blot, normalized to GAPDH)","[22]; 0.75 μM to 6 μM, 48 h",significant inhibition of ZIKV NS3 expression
same,viral protein expression (Western blot),[22]; 6 μM,nearly completely suppressed viral protein expression
O=C(Nc1ccc(Nc2ccncc2)cc1)c1ccc(Nc2ccnc3ccc([N+](=O)[O-])cc23)cc1 [NSC146771],suppression of NPGB-induced SLC enhancement,[1]; NPGB 30 μM,abolish the SLC enhancement induced by NPGB to the background level
same,effect of compound alone on background SLC,[1],did not have significant effect on background SLC
same,"inhibition of NPGB-induced SLC enhancement, concentration series",[1]; NPGB 30 μM,did not inhibit the NPGB-induced SLC enhancement until very high concentration
same,DENV2 viral production (titer) relative to DMSO control,DENV2 [14]; A549 cells,no appreciable effect; also recorded: did not show any inhibition
same,CC50,in vitro,82000 nM
same,EC50,DENV2 [18],> 100000 nM
Cn1ccc(=Nc2ccc(NC(=O)c3ccc(N=c4ccn(C)c5ccc([N+](=O)[O-])cc45)cc3)cc2)cc1 [NSC260594],suppression of NPGB-induced SLC enhancement,[1]; NPGB 30 μM,abolish the SLC enhancement induced by NPGB to the background level
same,effect of compound alone on background SLC,[1],did not have significant effect on background SLC
same,"inhibition of NPGB-induced SLC enhancement, concentration series",[1]; NPGB 30 μM,did not inhibit the NPGB-induced SLC enhancement until very high concentration
same,DENV2 viral production (titer) relative to DMSO control,DENV2 [14]; A549 cells,significantly reduced
same,CC50,in vitro,> 500000 nM
same,EC50,DENV2 [18],13500 nM
Nitrophenyl p-guanidinobenzoate [NPGB],SLC enhancement compared to DMSO control,"[1]; WT N2CN3N 150 nM, NPGB 30 μM",4.2 fold
same,SLC enhancement compared to DMSO control,"N2CN3N A125C mutant; A125C mutant 150 nM, NPGB 30 μM",2.2 fold
same,SLC enhancement upon addition of active-site inhibitor,N2CN3N A125W mutant,SLC enhancement was not observed
same,effect on luciferase activity of full-length FLuc,[2],do not affect the luciferase activity; also recorded: did not have any effects
